# Where two headings read alike, the source gives them in different places.
# How the values were obtained:
# encapsidated pgRNA = test: Encapsidated pgRNA by Northern blot in AML12HBV10 cells; assay type: cell-based, Hepatitis B virus (HBV); details: 2 days, FIG. 3 panel C, Bay41-4109 5 μM, AT-61 25 μM
# Description: (§1) To obtain mechanistic insight of the compounds of present invention against HBV, AML12HBV10 cells cultured in the 12-well plates were treated with a series of concentrations of DVR-1, DVR-56 or DVR-23 for two days in the absence of tetracycline (Guo et al., 2007). As positive controls, the cells were also treated with Bay41-4109 (5 μM) or AT-61 (25 μM), the known HBV nucleocapsid assembly effectors that either bind to HBV core protein dimmer to misdirect its interaction and prevent capsid formation (Bay41-4109) (Deres et al., 2003: Stray and Zlotnick, 2006), or interact with a core assembly intermediate and promote the formation of empty capsids (AT-61) (Feld et al., 2007; Katen et al., King et al., 1998). The amounts of intracellular viral mRNA, encapsidated pgRNA, capsids and nucleocapsid-associated HBV DNA were analyzed with the methods detailed below.
# Determination of encapsidated pgRNA: AML12HBV10 cells were lysed by addition of 600 μl of lysis buffer (50 mM Tris-HCl [pH 7.5], 1 mM EDTA, 150 mM NaCl, 1% NP-40) into each well of 12-well plates. The nuclei were removed by centrifugation at 5,000 g for 10 minutes. One-half of the sample was mixed with 6 U of micrococcal nuclease (Pharmacia) and 15 μl of 100 mM CaCl2 and incubated for 15 minutes at 37° C. to digest free nucleic acids. The reaction was stopped with 6 μl of 0.5 M EDTA, and capsids were precipitated by adding 125 μl of 35% polyethylene glycol 8000 in 1.75 M NaCl to the reaction and incubating in ice for 30 minutes, followed by centrifugation at 6,000 g for 10 minutes at 4° C. Pellets were re-suspended in 50 μl of TNE buffer (10 mM Tris-HCl [pH 8], 100 mM NaCl, 1 mM EDTA), pgRNA was extracted by the addition of 1 ml of Trizol reagent. The encapsidated pgRNA were electrophoresed through a 2.2 M formaldehyde-1% agarose gel, transferred to a nylon membrane, and immobilized by UV cross-linking (Stratagene). Hybridization was performed with an alpha-^32P-UTP labeled riboprobe specific for plus strand of HBV genome.
# HBV capsids = test: Viral capsids by particle gel assay; assay type: cell-based, Hepatitis B virus (HBV); details: AML12HBV10 cells, 2 days, FIG. 3 panel B; Bay41-4109 5 μM, AT-61 25 μM
# Description: as §1
# (§2) Procedures of viral capsids and nucleocapsid-associated DNA analysis: HepDES19 cells were lysed by addition of 300 μl buffer containing 10 mM Tris-HCl (pH7.6), 100 mM NaCl, 1 mM EDTA and 0.1% NP-40 to each well of 12-well plate. […] HBV capsids were detected by probing the membrane with an antibody against HBV core protein (DAKO). […] The viral DNA was detected by hybridization with a α-^32P-UTP (800 Ci/mmol, Perkin Elmer) labeled minus strand specific full-length HBV riboprobe (Xu et al.).
# [1] = test system: capsid-associated HBV DNA; test: Nucleocapsid-associated HBV DNA and DNA replication intermediates (particle gel hybridization, Southern blot); assay type: cell-based, Hepatitis B virus (HBV); details: AML12HBV10 cells, 2 days, FIG. 3 panels D and E; Bay41-4109 5 μM, AT-61 25 μM
# Description: as §1
# as §2, with “al.). […]” for “al.).”
# HBV [2] = test: Antiviral efficacy in AML12HBV10 cells, HBV DNA by dot-blot hybridization; assay type: cell-based, Hepatitis B virus (HBV)
# Description: The antiviral efficacy of the compounds of the disclosure, as presented in Tables 5, 6, 7, 8 and 9, were determined in AML12HBV10 cells. AML12HBV10 is an immortalized murine hepatocyte (AML12)-derived stable cell line that supports robust HBV replication in a tetracycline inducible manner (Xu et al.). The cells were seeded into 96 well plates at a density of 2×10^4 cells per well and cultured in DMEM/F12 media with 10% fetal bovine serum in the absence of tetracycline to allow pgRNA transcription and HBV DNA replication. One day after seeding, cells were left untreated or treated with a serial dilution of testing compounds, ranging from 50 μM to 0.39 μM, for 48 hours. Cells were then lysed by adding into each well of 100 μl lysis buffer containing 10 mM Tris-HCl (pH 7.6), 1 mM EDTA, 100 mM NaCl and 1% NP-40 and incubated at 37° C. for 30 minutes. Half amount (50 μl) of cell lysate from each well was combined with equal volume of denaturing solution containing 0.5N NaOH and 1.5M NaCl. After 5 minute incubation, 100 μl of neutralization solution (IM Tris-HCl, pH 7.4, 1.5M NaCl) was added into each well. The denatured cell lysates (totally 200 μl) were applied onto Nylon membrane using 96-well dot-blot manifold (Biorad). HBV DNA in the cell lysates were determined by dot-blot hybridization with alpha-^32P-UTP-labelled riboprobe specific for HBV minus strand DNA. The antiviral efficacy of a compound of the disclosure was expressed as the concentration that reduces the amount of HBV DNA by 50% (EC50).
# AML12HBV10 cells = test: Cytotoxicity in AML12HBV10 cells, MTT assay; assay type: cell-based, murine
# Description: (§3) Determination of cytotoxicity of compounds of the disclosure in AML12HBV10 cells: To determine the cytotoxicity of the compounds, AML12HBV10 cells were seeded into 96-well plates at a density of 2×10^4 cells per well and cultured in DMEM/F12 media with 10% fetal bovine serum in the absence of tetracycline to allow pgRNA transcription and HBV DNA replication. One day after seeding, cells were left untreated or treated with a serial dilution of testing compounds, ranging from 50 μM to 0.39 μM, for 48 hours. The cell viability was measured by a MTT assay, following procedure provided by the manufacturer (Promega). The cytotoxicity of a compound was expressed as the concentration of compound that reduces the viability of the cells by 50% (CC50).
# [3] = Cytotoxicity in AML12HBV10 cells, MTT assay; assay type: cell-based, murine; details: mouse; AML12HBV10 cells, 48 hours, MTT; read-out: CC50 (cellular toxicity)
# Description: as §3
# HBV [4] = test: Antiviral activity in HepDES19 cells, core-associated HBV DNA by Southern blot hybridization; assay type: cell-based; details: Hepatitis B virus, 144 h, Table 10, HepDES19 cells, 6 days, unit inferred
# Description: FIG. 2 and Table 10, in human hepatoma-derived cell lines: To further confirm the antiviral activity of the compounds of the disclosure against HBV in human hepatocyte-derived cells, HepDES19 cells, a human hepatoma cell line supporting HBV replication in a tetracycline inducible manner (Guo et al., 2007), seeded into 12-well plates at a density of 5×10^5 cells per well and cultured in DMEM/F12 media with 10% fetal bovine serum and 1 μg/ml tetracycline. Two days after seeding, the cells were mock-treated or treated with a serial dilution of compounds of the disclosure, ranging from 10 μM to 0.018 μM, for 6 days in the absence of tetracycline. Upon the completion of treatment, cells were lysed by adding into each well of the 12-well plates 0.5 ml of lysis buffer containing 10 mM Tris-HCl (pH 8.0), 1 mM EDTA, 1% NP40 and 2% sucrose and incubating at 37° C. for 10 minutes. Cell debris and nuclei were removed by centrifugation and the supernatant was mixed with 130 μl of 35% polyethylene glycol (PEG) 8000 containing 1.5 M NaCl. After 1 hour incubation in ice, viral nucleocapsids were pelleted by centrifugation at 6,000×g for 5 min at 4° C., followed by 1 hour digestion at 37° C. in 400 μl of digestion buffer containing 0.5 mg/ml pronase (Calbiochem), 0.5% SDS, 150 mM NaCl, 25 mM Tris-HCl (pH 8.0) and 10 mM EDTA. The digestion mixture was extracted twice with phenol and DNA was precipitated with ethanol, dissolved in TE buffer (10 mM Tris-HCl, pH 8.0; 0.1 mM EDTA). One half of the DNA sample from each well was resolved by electrophoresis into a 1.5% agarose gel. The gel was then subjected to denaturation in a solution containing 0.5 M NaOH and 1.5 M NaCl, followed by neutralization in a buffer containing 1 M Tris-HCl (pH7.4) and 1.5 M NaCl. DNA was then blotted onto Hybond-XL membrane (GE Health care) in 20×SSC buffer. The amounts of cytoplasmic HBV core-associated HBV DNA were determined by Southern blot hybridization and the antiviral efficacy of a compound was expressed as its concentration that reduce the amount of HBV DNA by 50% (EC50) or 90% (EC90).
# [5] = Cytotoxicity in HepDES19 cells, MTT assay; assay type: cell-based; details: human, Table 10, HepDES19 cells, unit inferred
# Description: as §3, with “human hepatoma-derived cell lines, HepDES19” for “AML12HBV10 cells: To determine the cytotoxicity of the compounds, AML12HBV10”, “2×10^4” left out, “tetracycline.” for “tetracycline to allow pgRNA transcription and HBV DNA replication.”, “6 days.” for “48 hours.”
# [6] = AML12HBV10 cells, 48 hours, concentration reducing HBV DNA by 50%, read-out: EC50 (antiviral activity by dot blot hybridization)
# [7] = AML12HBV10 cells, 48 hours, MTT, read-out: CC50 (cellular toxicity)
# [8] = Hepatitis B virus, AML12HBV10 cells, 48 hours, concentration reducing HBV DNA by 50%, read-out: EC50 (antiviral activity by dot blot hybridization)
compound,measurement,setting,value
O=C(N/C(C(=O)N1CCCCC1)=C(/Cl)c1ccccc1)c1ccccc1 [AT-61],level of encapsidated pgRNA,encapsidated pgRNA,dose-dependently reduced
same,capsid formation,HBV capsids,did not affect
same,capsid-associated HBV DNA / DNA synthesis,[1],dose-dependently reduced
COc1ccc(CCNS(=O)(=O)c2ccc(F)c(C(=O)Nc3ccc(Cl)cc3)c2)cc1OC [DVR-91],EC50,HBV [2]; [6],16.8 µM
same,CC50,AML12HBV10 cells; [7],> 50 µM
"O=C(Nc1ccc(F)c(F)c1)c1cc(S(=O)(=O)NC2CCCCC2)ccc1F [DVR-45, 5-cyclohexylsulfamoyl-N-(3,4-difluoro-phenyl)-2-fluoro-benzamide]",EC50,HBV [2]; [8],0.8 µM
same,EC50,"HBV [2]; Hepatitis B virus, Table 10, AML12HBV10 cells, unit inferred, read-out: AML12HBV10 EC50",0.8 µM
same,CC50 at 48 h,[3],> 50 µM
same,CC50,"AML12HBV10 cells; Table 10, AML12HBV10 cells, unit inferred, read-out: AML12HBV10 CC50",> 50 µM
same,EC90,HBV [4]; HBV DNA reduced by 90%,2.11 µM
same,EC50,HBV [4]; Southern blot,0.48 µM
same,CC50 at 6 days,[5],> 50 µM
NS(=O)(=O)c1cccc(C(=O)Nc2ccccc2)c1 [DVR-22],EC50,HBV [2]; [6],8 µM
same,CC50,AML12HBV10 cells; [7],> 50 µM
O=C(NCc1ccccc1)c1ccc2c(c1)NC(=O)c1ccccc1S2(=O)=O,EC50,HBV [2]; [8],8 µM
same,CC50 at 48 h,[3],> 50 µM
NS(=O)(=O)c1cc(C(=O)Nc2cc(C(F)(F)F)ccc2Cl)ccc1F [DVR-21],EC50,HBV [2]; [6],6.8 µM
same,CC50,AML12HBV10 cells; [7],> 50 µM
NS(=O)(=O)c1cc(C(=O)Nc2cccc(C(F)(F)F)c2)ccc1F [DVR-19],EC50,HBV [2]; [6],9 µM
same,CC50,AML12HBV10 cells; [7],> 50 µM
COC(=O)C1=C(C)NC(c2ncc(F)cc2F)=N[C@H]1c1ccc(F)cc1Cl [Bay41-4109],level of encapsidated pgRNA,encapsidated pgRNA,completely abolished
same,capsid formation,HBV capsids,completely abolished
same,capsid-associated HBV DNA / DNA synthesis,[1],completely abolished
Cc1cccc(NC(=O)c2cc(S(N)(=O)=O)ccc2Cl)c1 [DVR-16],EC50,HBV [2]; [6],6 µM
same,CC50,AML12HBV10 cells; [7],> 50 µM
C=CCNS(=O)(=O)c1ccc(F)c(C(=O)Nc2ccc(F)c(F)c2)c1 [DVR-34],EC50,HBV [2]; [6],4 µM
same,CC50,AML12HBV10 cells; [7],> 50 µM

# Reference: patent publication US9758477B2, “Sulfamoylbenzamide derivatives as antiviral agents against HBV infection” (priority 2011, dated 2017)
